Experimental data: PMC3253737 (Journal of Natural Products, 2011)
Where two headings read alike, the source gives them in different places.

Experiments:
[1] = MTS viability; assay type: cell-based; details: human (JMAR, MDA-1986, SKMEL-28, MRC-5) and mouse (B16F10)
[2] = tested on: HNSCC (JMAR and MDA-1986), melanoma (B16F10 and SKMEL-28), and normal fetal fibroblast (MRC-5) cells; assay: MTS viability; assay type: cell-based
[3] = Cytotoxicity IC50 (inactive for all cell lines used), all cell lines used (B16F10, SKMEL-28, JMAR, MDA-1986, MRC-5)

CC1=C(C)C(=O)O[C@@H]([C@@H](C)[C@H]2CC[C@H]3[C@@H]4C[C@H]5O[C@]56[C@@H](O)C=CC(=O)[C@]6(CO)[C@H]4CC[C@]23C)C1 [Compound 2, 27-deoxy-19-hydroxywithaferin A]
IC50 ([1]; cytotoxicity IC50): 0.067 to 9.3 µM

CC1=C(CO)C(=O)O[C@@H]([C@@H](C)[C@H]2CC[C@H]3[C@@H]4C[C@H]5O[C@]56[C@@H](O)[C@@H](OS(=O)(=O)O)CC(=O)[C@]6(CO)[C@H]4CC[C@]23C)C1 [Compound 7, 2,3-dihydro-19-hydroxy-3β-O-sulfate-withaferin A]
IC50 ([1]; cytotoxicity IC50): 0.067 to 9.3 µM

CC1=C(CO)C(=O)O[C@@H]([C@@H](C)[C@H]2CC[C@H]3[C@@H]4C[C@H]5O[C@]56[C@@H](O)C=CC(=O)[C@]6(CO)[C@H]4CC[C@]23C)C1 [Compound 1, 19-hydroxywithaferin A]
IC50 [1]: 0.067 to 9.3 µM

CC1=C(CO)C(=O)O[C@@H]([C@@H](C)[C@H]2CC[C@H]3[C@@H]4C[C@H]5O[C@]56[C@@H](O)[C@@H](O)CC(=O)[C@]6(C)[C@H]4CC[C@]23C)C1 [Compound 18, viscosalactone B]
IC50 [1, 3]: > 10 µM

CC1=C(CO[C@@H]2O[C@H](CO)[C@@H](O)[C@H](O)[C@H]2O)C(=O)O[C@@H]([C@@H](C)[C@H]2CC[C@H]3[C@@H]4C[C@H]5O[C@]56[C@@H](O)C=CC(=O)[C@]6(C)[C@H]4CC[C@]23C)C1 [Compound 15, 27-O-β-D-glucopyranosyl-withaferin A]
cytotoxicity relative to the aglycone withaferin A (16) ([2]; MTS assay, comparison in words): less cytotoxicity

CC1=C(CO)C(=O)O[C@@H]([C@@H](C)[C@H]2CC[C@H]3[C@@H]4C[C@@H]5O[C@@H]6CC(=O)[C@](C)([C@H]4CC[C@]23C)[C@@]5(O)[C@H]6O)C1 [Compound 21, 3α,6α-epoxy-4β,5β,27-trihydroxy-1-oxowitha-24-enolide]
IC50 [1, 3]: > 10 µM

CC1=C(CO)C(=O)O[C@@H]([C@@H](C)[C@H]2CC[C@H]3[C@@H]4CC=C5C=CC(=O)[C@]5(C)[C@H]4CC[C@]23C)C1 [Compound 6, A-nor-27-hydroxy-1-oxowitha-2,5,24-trienolide]
IC50 [1]: > 10 µM

CC1=C(CO[C@@H]2O[C@H](CO)[C@@H](O[C@@H]3O[C@@H](C)[C@H](O)[C@@H](O)[C@H]3O)[C@H](O)[C@H]2O)C(=O)O[C@@H]([C@@H](C)[C@H]2CC[C@H]3[C@@H]4C[C@H]5O[C@]56[C@@H](O)C=CC(=O)[C@]6(C)[C@H]4CC[C@]23C)C1 [Compound 8, 27-O-[α-L-rhamnopyranosyl(1→4)]-β-D-glucopyranosyl-withaferin A]
IC50 ([1]; cytotoxicity IC50): 0.067 to 9.3 µM
cytotoxicity relative to the aglycone withaferin A (16) [2]: less cytotoxicity

CO[C@H]1CC(=O)[C@]2(C)[C@H]3CC[C@]4(C)[C@@H]([C@H](C)[C@H]5CC(C)=C(CO)C(=O)O5)CC[C@H]4[C@@H]3C[C@H]3O[C@]32[C@H]1O [Compound 17, 2,3-dihydro-3β-methoxywithaferin A]
IC50 ([1]; Cytotoxicity IC50 (inactive for all cell lines used)): > 10 µM

CC1=C(CO)C(=O)O[C@@H]([C@@H](C)[C@H]2CC[C@H]3[C@@H]4C[C@H]5O[C@]56[C@@H](O)CCC(=O)[C@]6(C)[C@H]4CC[C@]23C)C1 [Compound 20, 2,3-dihydrowithaferin A]
IC50 [1, 3]: > 10 µM
